{"source": "ChEMBL document CHEMBL1649287", "about": "“Postantibiotic effect of ceftaroline against gram-positive organisms” (2009)", "format_in_all_cases": "functional", "key": {"Enterococcus faecalis [1]": {"system": "Enterococcus faecalis", "experiment": "Antimicrobial activity against vancomycin-resistant Enterococcus faecalis 266 assessed as time required to induce post antibiotic sub-MIC effect at 0.4 times MIC after 1 hr by plate counting method", "details": "Enterococcus faecalis, 266, 1 h"}, "Streptococcus pneumoniae [2]": {"system": "Streptococcus pneumoniae", "experiment": "Antimicrobial activity against Penicillin-susceptible Streptococcus pneumoniae s502 assessed as time required to induce sub-MIC effect at 0.2 times MIC after 1 hr by plate counting method"}, "Enterococcus faecalis [3]": {"system": "Enterococcus faecalis", "experiment": "Antimicrobial activity against vancomycin-sensitive Enterococcus faecalis 20 assessed as time required to induce sub-MIC effect at 0.2 times MIC after 1 hr by plate counting method", "details": "Enterococcus faecalis, 20, 1 h"}, "Enterococcus faecalis [4]": {"system": "Enterococcus faecalis", "experiment": "Antimicrobial activity against vancomycin-sensitive Enterococcus faecalis 20 assessed as time required to induce post antibiotic sub-MIC effect at 0.4 times MIC after 1 hr by plate counting method", "details": "Enterococcus faecalis, 20, 1 h"}, "Enterococcus faecalis [5]": {"system": "Enterococcus faecalis", "experiment": "Antimicrobial activity against vancomycin-resistant Enterococcus faecalis 609 assessed as time required to induce sub-MIC effect at 0.3 times MIC after 1 hr by plate counting method", "details": "Enterococcus faecalis, 609, 1 h"}, "Enterococcus faecalis [6]": {"system": "Enterococcus faecalis", "experiment": "Antimicrobial activity against vancomycin-resistant Enterococcus faecalis 609 assessed as time required to induce post antibiotic sub-MIC effect at 0.4 times MIC after 1 hr by plate counting method", "details": "Enterococcus faecalis, 609, 1 h"}, "Enterococcus faecalis [7]": {"system": "Enterococcus faecalis", "experiment": "Antimicrobial activity against vancomycin-resistant Enterococcus faecalis 609 by microdilution method"}, "Streptococcus pneumoniae [8]": {"system": "Streptococcus pneumoniae", "experiment": "Antimicrobial activity against Penicillin-, erythromycin-resistant Streptococcus pneumoniae 37 by microdilution method"}, "Staphylococcus aureus [9]": {"system": "Staphylococcus aureus", "experiment": "Antimicrobial activity against methicillin-susceptible, vancomycin-susceptible Staphylococcus aureus sox1 assessed as post antibiotic effect at 10 times MIC after 1 hr by plate counting method", "details": "sox1, 1 h"}, "Staphylococcus aureus [10]": {"system": "Staphylococcus aureus", "experiment": "Antimicrobial activity against methicillin-resistant, vancomycin-hetroresistant Staphylococcus aureus 618 by microdilution method"}, "Enterococcus faecalis [11]": {"system": "Enterococcus faecalis", "experiment": "Antimicrobial activity against vancomycin-sensitive Enterococcus faecalis 10 assessed as time required to induce sub-MIC effect at 0.4 times MIC after 1 hr by plate counting method", "details": "Enterococcus faecalis, 10, 1 h"}, "Streptococcus pneumoniae [12]": {"system": "Streptococcus pneumoniae", "experiment": "Antimicrobial activity against Penicillin-susceptible Streptococcus pneumoniae s502 assessed as time required to induce sub-MIC effect at 0.3 times MIC after 1 hr by plate counting method", "details": "s502, 1 h"}, "Enterococcus faecalis [13]": {"system": "Enterococcus faecalis", "experiment": "Antimicrobial activity against vancomycin-sensitive Enterococcus faecalis ATCC 29212 assessed as time required to induce post antibiotic sub-MIC effect at 0.3 times MIC after 1 hr by plate counting method", "details": "ATCC 29212, 1 h"}, "Enterococcus faecalis [14]": {"system": "Enterococcus faecalis", "experiment": "Antimicrobial activity against vancomycin-sensitive Enterococcus faecalis 20 assessed as time required to induce sub-MIC effect at 0.3 times MIC after 1 hr by plate counting method", "details": "Enterococcus faecalis, 20, 1 h"}, "Staphylococcus aureus [15]": {"system": "Staphylococcus aureus", "experiment": "Antimicrobial activity against methicillin-resistant, vancomycin-intermediate Staphylococcus aureus 510 assessed as time required to induce sub-MIC effect at 0.3 times MIC after 1 hr by plate counting method", "details": "Staphylococcus aureus, 510, 1 h"}, "Staphylococcus aureus [16]": {"system": "Staphylococcus aureus", "experiment": "Antimicrobial activity against methicillin-resistant, vancomycin-susceptible Staphylococcus aureus vs1 assessed as time required to induce post antibiotic sub-MIC effect at 0.3 times MIC after 1 hr by plate counting method", "details": "vs1, 1 h"}, "Streptococcus pneumoniae [17]": {"system": "Streptococcus pneumoniae", "experiment": "Antimicrobial activity against Penicillin-susceptible Streptococcus pneumoniae ATCC 49617 assessed as time required to induce sub-MIC effect at 0.4 times MIC after 1 hr by plate counting method", "details": "ATCC 49617, 1 h"}, "Enterococcus faecalis [18]": {"system": "Enterococcus faecalis", "experiment": "Antimicrobial activity against vancomycin-sensitive Enterococcus faecalis 20 assessed as time required to induce post antibiotic sub-MIC effect at 0.3 times MIC after 1 hr by plate counting method", "details": "Enterococcus faecalis, 20, 1 h"}, "Staphylococcus aureus [19]": {"system": "Staphylococcus aureus", "experiment": "Antimicrobial activity against methicillin-susceptible, vancomycin-susceptible Staphylococcus aureus ATCC 29213 by microdilution method"}, "Enterococcus faecalis [20]": {"system": "Enterococcus faecalis", "experiment": "Antimicrobial activity against vancomycin-sensitive Enterococcus faecalis 20 assessed as post antibiotic effect at 10 times MIC after 1 hr by plate counting method", "details": "Enterococcus faecalis, 20, 1 h"}, "Enterococcus faecalis [21]": {"system": "Enterococcus faecalis", "experiment": "Antimicrobial activity against vancomycin-resistant Enterococcus faecalis 266 assessed as post antibiotic effect at 10 times MIC after 1 hr by plate counting method", "details": "Enterococcus faecalis, 266, 1 h"}, "Streptococcus pneumoniae [22]": {"system": "Streptococcus pneumoniae", "experiment": "Antimicrobial activity against Penicillin-, erythromycin-resistant Streptococcus pneumoniae 37 assessed as post antibiotic effect at 10 times MIC after 1 hr by plate counting method", "details": "Streptococcus pneumoniae, 37, 1 h"}, "Staphylococcus aureus [23]": {"system": "Staphylococcus aureus", "experiment": "Antimicrobial activity against methicillin-resistant, vancomycin-susceptible Staphylococcus aureus vs1 assessed as time required to induce sub-MIC effect at 0.3 times MIC after 1 hr by plate counting method", "details": "vs1, 1 h"}, "Enterococcus faecalis [24]": {"system": "Enterococcus faecalis", "experiment": "Antimicrobial activity against vancomycin-sensitive Enterococcus faecalis ATCC 29212 assessed as time required to induce post antibiotic sub-MIC effect at 0.4 times MIC after 1 hr by plate counting method", "details": "ATCC 29212, 1 h"}, "Streptococcus pneumoniae [25]": {"system": "Streptococcus pneumoniae", "experiment": "Antimicrobial activity against Penicillin-intermediate Streptococcus pneumoniae s1234 assessed as time required to induce post antibiotic sub-MIC effect at 0.2 times MIC after 1 hr by plate counting method", "details": "s1234, 1 h"}, "Staphylococcus aureus [26]": {"system": "Staphylococcus aureus", "experiment": "Antimicrobial activity against methicillin-resistant, vancomycin-susceptible Staphylococcus aureus vs1 assessed as time required to induce sub-MIC effect at 0.4 times MIC after 1 hr by plate counting method", "details": "vs1, 1 h"}, "Enterococcus faecalis [27]": {"system": "Enterococcus faecalis", "experiment": "Antimicrobial activity against vancomycin-sensitive Enterococcus faecalis ATCC 29212 by microdilution method"}, "Streptococcus pneumoniae [28]": {"system": "Streptococcus pneumoniae", "experiment": "Antimicrobial activity against Penicillin-susceptible Streptococcus pneumoniae s502 assessed as time required to induce post antibiotic sub-MIC effect at 0.3 times MIC after 1 hr by plate counting method", "details": "s502, 1 h"}, "Enterococcus faecalis [29]": {"system": "Enterococcus faecalis", "experiment": "Antimicrobial activity against vancomycin-sensitive Enterococcus faecalis 10 assessed as time required to induce post antibiotic sub-MIC effect at 0.3 times MIC after 1 hr by plate counting method", "details": "Enterococcus faecalis, 10, 1 h"}, "Staphylococcus aureus [30]": {"system": "Staphylococcus aureus", "experiment": "Antimicrobial activity against methicillin-resistant, vancomycin-intermediate Staphylococcus aureus 510 assessed as time required to induce sub-MIC effect at 0.4 times MIC after 1 hr by plate counting method", "details": "Staphylococcus aureus, 510, 1 h"}, "Staphylococcus aureus [31]": {"system": "Staphylococcus aureus", "experiment": "Antimicrobial activity against methicillin-susceptible, vancomycin-susceptible Staphylococcus aureus sox1 assessed as time required to induce sub-MIC effect at 0.2 times MIC after 1 hr by plate counting method", "details": "sox1, 1 h"}, "Staphylococcus aureus [32]": {"system": "Staphylococcus aureus", "experiment": "Antimicrobial activity against methicillin-resistant, vancomycin-hetroresistant Staphylococcus aureus 618 assessed as time required to induce post antibiotic sub-MIC effect at 0.4 times MIC after 1 hr by plate counting method", "details": "Staphylococcus aureus, 618, 1 h"}, "Enterococcus faecalis [33]": {"system": "Enterococcus faecalis", "experiment": "Antimicrobial activity against vancomycin-resistant Enterococcus faecalis 266 assessed as time required to induce post antibiotic sub-MIC effect at 0.2 times MIC after 1 hr by plate counting method", "details": "Enterococcus faecalis, 266, 1 h"}, "Streptococcus pneumoniae [34]": {"system": "Streptococcus pneumoniae", "experiment": "Antimicrobial activity against Penicillin-susceptible Streptococcus pneumoniae ATCC 49617 by microdilution method"}, "Streptococcus pneumoniae [35]": {"system": "Streptococcus pneumoniae", "experiment": "Antimicrobial activity against Penicillin-susceptible Streptococcus pneumoniae ATCC 49617 assessed as time required to induce sub-MIC effect at 0.3 times MIC after 1 hr by plate counting method", "details": "ATCC 49617, 1 h"}, "Enterococcus faecalis [36]": {"system": "Enterococcus faecalis", "experiment": "Antimicrobial activity against vancomycin-resistant Enterococcus faecalis 266 assessed as time required to induce sub-MIC effect at 0.2 times MIC after 1 hr by plate counting method", "details": "Enterococcus faecalis, 266, 1 h"}}}
{"smiles": "CCO/N=C(\\C(=O)N[C@@H]1C(=O)N2C(C(=O)[O-])=C(Sc3nc(-c4cc[n+](C)cc4)cs3)CS[C@H]12)c1nsc(NP(=O)(O)O)n1", "note": "[CEFTAROLINE FOSAMIL]", "values": [{"measurement": "time", "setting": "Enterococcus faecalis [1]", "value": "> 10.3", "unit": "h"}, {"measurement": "PAE", "setting": "Streptococcus pneumoniae [2]", "value": 0, "unit": "h"}, {"measurement": "time", "setting": "Enterococcus faecalis [3]", "value": 0.9, "unit": "h"}, {"measurement": "PAE", "setting": "Enterococcus faecalis [4]", "value": 10.5, "unit": "h"}, {"measurement": "time", "setting": "Enterococcus faecalis [5]", "value": 1.4, "unit": "h"}, {"measurement": "time", "setting": "Enterococcus faecalis [6]", "value": 7.9, "unit": "h"}, {"measurement": "MIC", "setting": "Enterococcus faecalis [7]", "value": 1, "unit": "µg/mL"}, {"measurement": "MIC", "setting": "Streptococcus pneumoniae [8]", "value": 0.25, "unit": "µg/mL"}, {"measurement": "PAE", "setting": "Staphylococcus aureus [9]", "value": 0.8, "unit": "h"}, {"measurement": "MIC", "setting": "Staphylococcus aureus [10]", "value": 2, "unit": "µg/mL"}, {"measurement": "time", "setting": "Enterococcus faecalis [11]", "value": 1.8, "unit": "h"}, {"measurement": "PAE", "setting": "Streptococcus pneumoniae [12]", "value": 0.3, "unit": "h"}, {"measurement": "PAE", "setting": "Enterococcus faecalis [13]", "value": "> 10.6", "unit": "h"}, {"measurement": "PAE", "setting": "Enterococcus faecalis [14]", "value": 1.3, "unit": "h"}, {"measurement": "time", "setting": "Staphylococcus aureus [15]", "value": 0.7, "unit": "h"}, {"measurement": "time", "setting": "Staphylococcus aureus [16]", "value": 4.7, "unit": "h"}, {"measurement": "PAE", "setting": "Streptococcus pneumoniae [17]", "value": 0.8, "unit": "h"}, {"measurement": "PAE", "setting": "Enterococcus faecalis [18]", "value": 8.6, "unit": "h"}, {"measurement": "MIC", "setting": "Staphylococcus aureus [19]", "value": 0.25, "unit": "µg/mL"}, {"measurement": "PAE", "setting": "Enterococcus faecalis [20]", "value": 0.5, "unit": "h"}, {"measurement": "PAE", "setting": "Enterococcus faecalis [21]", "value": 0.9, "unit": "h"}, {"measurement": "PAE", "setting": "Streptococcus pneumoniae [22]", "value": 1.5, "unit": "h"}, {"measurement": "time", "setting": "Staphylococcus aureus [23]", "value": 0.7, "unit": "h"}, {"measurement": "PAE", "setting": "Enterococcus faecalis [24]", "value": "> 10.6", "unit": "h"}, {"measurement": "PAE", "setting": "Streptococcus pneumoniae [25]", "value": 1.4, "unit": "h"}, {"measurement": "time", "setting": "Staphylococcus aureus [26]", "value": 1.2, "unit": "h"}, {"measurement": "MIC", "setting": "Enterococcus faecalis [27]", "value": 1, "unit": "µg/mL"}, {"measurement": "PAE", "setting": "Streptococcus pneumoniae [28]", "value": 3.5, "unit": "h"}, {"measurement": "PAE", "setting": "Enterococcus faecalis [29]", "value": 6.6, "unit": "h"}, {"measurement": "time", "setting": "Staphylococcus aureus [30]", "value": 1.3, "unit": "h"}, {"measurement": "PAE", "setting": "Staphylococcus aureus [31]", "value": 0.2, "unit": "h"}, {"measurement": "time", "setting": "Staphylococcus aureus [32]", "value": 2.9, "unit": "h"}, {"measurement": "time", "setting": "Enterococcus faecalis [33]", "value": 8.3, "unit": "h"}, {"measurement": "MIC", "setting": "Streptococcus pneumoniae [34]", "value": 0.016, "unit": "µg/mL"}, {"measurement": "PAE", "setting": "Streptococcus pneumoniae [35]", "value": 0.7, "unit": "h"}, {"measurement": "time", "setting": "Enterococcus faecalis [36]", "value": 1.4, "unit": "h"}]}
